Laboratory results as given in patent publication US4518611A, “2-Furylbutyrolactone modulation of the immune system in mammals” (priority 1983, dated 1985).
“Also recorded” adds a separate entry of the source. Read-outs that look alike come from different tables or passages of the source.

Experiments:
human lymphocytes = assay: In vitro lymphocyte stimulation assay, human lymphocytes; type: cell-based
Procedure: (§1) The purpose of this assay is to challenge lymphocytes in microcultures with one or more polyclonal mitogens at concentrations that will induce mitogenesis within 72 hours of stimulation.
(§2) In the mouse model, spleens are removed from different strains of mice and the spleen cells are teased free and suspended in RPMI-1640 tissue culture medium at a concentration of usually […]. These cells are dispensed at a concentration of 5.0×10^5 cells per microculture well in a 96 well flat bottom 96 well tissue culture plate. All testing of the compounds of this invention or mitogens are done in replicates of 10. The cells are then treated with PHA, Con-A, specific antigens, or buffer only. If in vitro testing is done, varying concentrations of the compounds of this invention or buffer only are added to the cells as well. After treatment with the mitogens and/or compounds of this invention, the cells are incubated for 72 hours. The response of these cells to mitogens and/or the compounds of this invention is assessed using ^14 C-thymidine labeling on the fourth day at a concentration of 0.01 μCi/well. The labeled cells are harvested using a lymphocyte harvestor and placed onto fibrous paper discs. A scintillation cocktail is added to vials containing the discs and the results are obtained using a LKB-liquid scintillation counter (Model 1216/Rackbeta II). The data is expressed as a ratio of the cpm of the mitogen stimulated group to the control (nonmitogen) treated group=lymphocyte stimulation index (LSI).
(§3) The lymphocyte stimulation assay may be performed directly on spleen cells obtained from various strains of mice not treated with the compounds of this invention or on lymphocytes obtained from human […]. […] Alternatively, the mice may be treated in vivo with the compounds of this invention by intraperitoneal multi-dose schedules, followed by sacrifice and harvesting spleen lymphocytes. These cells are then tested for their response to polyclonal mitogens or specific antigens used to immunize the mice. In this system however, no additional compound is added to the in vitro lymphocyte stimulation assay system.
Lymphocytes isolated from 5 human volunteers are treated in vitro with PHA and Con-A and either 0.1, 1, 10, 50, or 100 μg/well of Cpd. 1, 0.1, 1, 10, 50, or 100 μg/well of AA, or buffer.

spleen lymphocytes = conditions: 4 days
Procedure: as §1, §2, §3
Two strains of mice, C57BL/6 and BALB/c, are treated 4 days with i.p. administration of either 50, 100, 200, or 400 mg/kg of Cpd. 1, or just buffer. This is followed on the fifth day by a lymphocyte stimulation assay.

KLH antibody response = conditions: for increase of antibody titer over control (fold): 200 and 400 mg/kg
Description: (§4) The effect of the compounds of this invention on the immune response to specific antigens involves immunization of mice with specific antigens such as bovine serum albumin (BSA) or keyhole limpet hemocyanin (KLH). Following immunization, it is possible to assess the cell-mediated or humoral (antibody) immune response to these antigens by various methods:
(§5) (2) Antibody response to soluble antigens such as BSA or KLH can be quantitated using a micro-ELISA solid phase heterogeneous immunoassay. The assay can be designed to quantitate class specific immunoglobulins (i.e., IgG or IgM).
Mice of the C57BL/6 strain are given i.p. injections of either 50, 100, 200 or 400 mg/kg of Cpd. 1 or buffer for ten days (days 1-10). An antigen, keyhole limpet hemocyanin (KLH), is administered intraperitoneally with Freund's Complete Adjuvant (FCA) on days 1, 7, and 13. Blood samples are taken for assay of the antibody response on days 0, 5, 12, and 17. Spleens are removed, lymphocytes isolated and a lymphocyte stimulation assay with PHA, Con-A or KLH antigen as the mitogens is performed on day 17 of the experiment.

BSA antibody response = test system: BSA antibody response
Description: as §4, §5
The cut-off for the titer was the highest dilution of mouse serum yielding on O.D.≤0.1 when read on the MR-600 Dynatech micro-ELISA reader.
Mice of the C57BL/6 strain are given i.p. injections of either 50, 100, 200 or 400 mg/kg of Cpd. 1 or buffer for twelve days (days 1-12). An antigen, bovine serum albumin (BSA), is administered intraperitoneally with Freund's Complete Adjuvant (FCA) on days 1, 7 and 14. Blood samples are taken for assay of the antibody response on days 0, 5, 13, and 19.

Cc1ccc(C2(O)C(=O)OC3C(O)COC32O)o1.Cc1ccc(C2(O)C(=O)OC3C(O)COC32O)o1.O=C1CCC(=O)O1 (stereo not drawn) [Cpd. 1, 2-furylbutyrolactone:succinic anhydride]
Lymphocyte Stimulation Index, Con-A (human lymphocytes; 0.1 μg/well): 38.06
Lymphocyte Stimulation Index, PHA (human lymphocytes; 0.1 μg/well): 56.67
Lymphocyte Stimulation Index, Con-A (human lymphocytes; 1.0 μg/well): 32.63
Lymphocyte Stimulation Index, PHA (human lymphocytes; 1.0 μg/well): 48.60
Lymphocyte Stimulation Index, Con-A (human lymphocytes; 10 μg/well): 23.82
Lymphocyte Stimulation Index, PHA (human lymphocytes; 10 μg/well): 34.37
Lymphocyte Stimulation Index, Con-A (human lymphocytes; 50 μg/well): 1.33
Lymphocyte Stimulation Index, PHA (human lymphocytes; 50 μg/well): 0.40
Lymphocyte Stimulation Index, Con-A (human lymphocytes; 100 μg/well): 0.44
Lymphocyte Stimulation Index, PHA (human lymphocytes; 100 μg/well): 0.544
effect on lymphocyte response (in words) (human lymphocytes; in vitro, PHA and Con-A): a high dose anti-proliferative effect, at doses of 100 and 50 μg/ml; also recorded: markedly increased lymphocyte response at very low doses of 1 and 0.1 μg/ml
Lymphocyte Stimulation Index, Con-A (spleen lymphocytes; 50 mg/kg i.p.): 20.5
Lymphocyte Stimulation Index, Control (no mitogen) (spleen lymphocytes; 50 mg/kg i.p.): 1.4
Lymphocyte Stimulation Index, PHA (spleen lymphocytes; 50 mg/kg i.p.): 6.44
Lymphocyte Stimulation Index, Con-A (spleen lymphocytes; 100 mg/kg i.p.): 21.8
Lymphocyte Stimulation Index, Control (no mitogen) (spleen lymphocytes; 100 mg/kg i.p.): 1.0
Lymphocyte Stimulation Index, PHA (spleen lymphocytes; 100 mg/kg i.p.): 5.24
Lymphocyte Stimulation Index, Con-A (spleen lymphocytes; 200 mg/kg i.p.): 20.5
Lymphocyte Stimulation Index, Control (no mitogen) (spleen lymphocytes; 200 mg/kg i.p.): .76
Lymphocyte Stimulation Index, Con-A (spleen lymphocytes; 400 mg/kg i.p.): 18.7
Lymphocyte Stimulation Index, Control (no mitogen) (spleen lymphocytes; 400 mg/kg i.p.): .90
Lymphocyte Stimulation Index, PHA (spleen lymphocytes; 400 mg/kg i.p.): 6.71
Micro-ELISA Titer (KLH antibody response; 50 mg/kg i.p., Day 5): N/R
Micro-ELISA Titer (KLH antibody response; 50 mg/kg i.p., Prebleed): N/R
Micro-ELISA Titer (KLH antibody response; 100 mg/kg i.p., Day 5): N/R
Micro-ELISA Titer (KLH antibody response; 100 mg/kg i.p., Prebleed): N/R
Micro-ELISA Titer (KLH antibody response; 200 mg/kg i.p., Day 5): N/R
Micro-ELISA Titer (KLH antibody response; 200 mg/kg i.p., Prebleed): N/R
Micro-ELISA Titer (KLH antibody response; 400 mg/kg i.p., Day 5): N/R
Micro-ELISA Titer (KLH antibody response; 400 mg/kg i.p., Prebleed): N/R
increase of antibody titer over control (fold) (KLH antibody response; day 12): four-fold
increase of antibody titer over control (fold) (KLH antibody response; day 17): eight-fold
Micro-ELISA Titer (BSA antibody response; 50 mg/kg i.p., Day 5): N/R
Micro-ELISA Titer (BSA antibody response; 50 mg/kg i.p., Prebleed): N/R
antibody titer versus control (in words) (BSA antibody response; 50 mg/kg, day 19): A slight increase of antibody titer over the control
Micro-ELISA Titer (BSA antibody response; 100 mg/kg i.p., Day 5): N/R
Micro-ELISA Titer (BSA antibody response; 100 mg/kg i.p., Prebleed): N/R
Micro-ELISA Titer (BSA antibody response; 200 mg/kg i.p., Day 5): N/R
Micro-ELISA Titer (BSA antibody response; 200 mg/kg i.p., Prebleed): N/R
Micro-ELISA Titer (BSA antibody response; 400 mg/kg i.p., Day 5): N/R
Micro-ELISA Titer (BSA antibody response; 400 mg/kg i.p., Prebleed): N/R
antibody response versus control (in words) (BSA antibody response; 400 mg/kg, day 19): the antibody responses to BSA are equal at the 0 mg/kg and 400 mg/kg dose
stimulation of antibody response (in words) (BSA antibody response; 50 and 100 mg/kg, day 13): only a slight amount of stimulation
increase over controls of antibody titer (fold) (BSA antibody response; 100 and 200 mg/kg, day 19): 16 fold
stimulation of antibody response (fold) (BSA antibody response; 200 and 400 mg/kg, day 13): four-fold
